#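 Compound exposure: 48 hours, 5 concentrations, 96-well plates. Here, GI50 denotes the concentration required for 50% inhibition of growth. TGI denotes the concentration required for complete inhibition of growth.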
# Legend:
# Assay in all cases: inhibition of tumour cell growth, NCI panel, 48 h
# MDA-MB-231 breast = system: MDA-MB-231 breast
# SN12C renal = system: SN12C renal
# PC-3 prostate = system: PC-3 prostate
# UO-31 renal = system: UO-31 renal
# HOP-92 NSCLC = system: HOP-92 NSCLC
# BT-549 breast = system: BT-549 breast
# A498 renal = system: A498 renal
# SK-OV-3 ovarian = system: SK-OV-3 ovarian
# T-47D breast = system: T-47D breast
# A549 NSCLC = system: A549 NSCLC
# SK-MEL-5 melanoma = system: SK-MEL-5 melanoma
# SNB-75 CNS = system: SNB-75 CNS
# K-562 leukemia = system: K-562 leukemia
# OVCAR-5 ovarian = system: OVCAR-5 ovarian
# HCT-15 colon = system: HCT-15 colon
# CCRF-CEM leukemia = system: CCRF-CEM leukemia
# HL-60(TB) leukemia = system: HL-60(TB) leukemia
# IGROV1 ovarian = system: IGROV1 ovarian
# RPMI-8226 leukemia = system: RPMI-8226 leukemia
# 786-0 renal = system: 786-0 renal
# SW-620 colon = system: SW-620 colon
# UACC-62 melanoma = system: UACC-62 melanoma
# HOP-62 NSCLC = system: HOP-62 NSCLC
# NCI-H23 lung = system: NCI-H23 lung
# OVCAR-8 ovarian = system: OVCAR-8 ovarian
# MALME-3M melanoma = system: MALME-3M melanoma
# OVCAR-3 ovarian = system: OVCAR-3 ovarian
# OVCAR-4 ovarian = system: OVCAR-4 ovarian
# MOLT-4 leukemia = system: MOLT-4 leukemia
# SF-539 CNS = system: SF-539 CNS
# NCI-H226 lung = system: NCI-H226 lung
# SNB-19 CNS = system: SNB-19 CNS
# HCT-116 colon = system: HCT-116 colon
# CAKI-1 renal = system: CAKI-1 renal
# LOX IMVI melanoma = system: LOX IMVI melanoma
# SF-295 CNS = system: SF-295 CNS
# MCF7 breast = system: MCF7 breast
# HT29 colon = system: HT29 colon
# EKVX NSCLC = system: EKVX NSCLC
# MDA-MB-435 = system: MDA-MB-435
# TK-10 renal = system: TK-10 renal
# NCI-H460 lung = system: NCI-H460 lung
# U251 CNS = system: U251 CNS
# M14 melanoma = system: M14 melanoma
# DU-145 prostate = system: DU-145 prostate
# NCI-H522 lung = system: NCI-H522 lung
# SK-MEL-2 melanoma = system: SK-MEL-2 melanoma
# SR leukemia = system: SR leukemia
# UACC-257 melanoma = system: UACC-257 melanoma
# COLO 205 colon = system: COLO 205 colon
# NCI/ADR-RES ovarian = system: NCI/ADR-RES ovarian
smiles,measurement,setting,value
O=C1Nc2ccccc2/C1=C/C(=O)c1ccc(N2CCCC2)cc1,GI50,MDA-MB-231 breast,3.73 µM
same,TGI,MDA-MB-231 breast,> 100 µM
same,GI50,SN12C renal,3.26 µM
same,TGI,SN12C renal,> 100 µM
same,GI50,PC-3 prostate,1.77 µM
same,TGI,PC-3 prostate,8.04 µM
same,GI50,UO-31 renal,2.14 µM
same,TGI,UO-31 renal,> 100 µM
same,GI50,HOP-92 NSCLC,1.75 µM
same,TGI,HOP-92 NSCLC,7.11 µM
same,GI50,BT-549 breast,3.27 µM
same,TGI,BT-549 breast,> 100 µM
same,GI50,A498 renal,3.45 µM
same,TGI,A498 renal,> 100 µM
same,GI50,SK-OV-3 ovarian,3.4 µM
same,TGI,SK-OV-3 ovarian,> 100 µM
same,GI50,T-47D breast,2.12 µM
same,TGI,T-47D breast,6.38 µM
same,GI50,A549 NSCLC,3.34 µM
same,TGI,A549 NSCLC,> 100 µM
same,GI50,SK-MEL-5 melanoma,2.96 µM
same,TGI,SK-MEL-5 melanoma,> 100 µM
same,GI50,SNB-75 CNS,2.05 µM
same,TGI,SNB-75 CNS,6.91 µM
same,GI50,K-562 leukemia,0.833 µM
same,TGI,K-562 leukemia,> 100 µM
same,GI50,OVCAR-5 ovarian,4.54 µM
same,TGI,OVCAR-5 ovarian,> 100 µM
same,GI50,HCT-15 colon,0.686 µM
same,TGI,HCT-15 colon,9.7 µM
same,GI50,CCRF-CEM leukemia,2 µM
same,TGI,CCRF-CEM leukemia,> 100 µM
same,GI50,HL-60(TB) leukemia,1.24 µM
same,TGI,HL-60(TB) leukemia,4.56 µM
same,GI50,IGROV1 ovarian,1.71 µM
same,TGI,IGROV1 ovarian,9.07 µM
same,GI50,RPMI-8226 leukemia,1.98 µM
same,TGI,RPMI-8226 leukemia,5.31 µM
same,GI50,786-0 renal,2.84 µM
same,TGI,786-0 renal,> 100 µM
same,GI50,SW-620 colon,0.339 µM
same,TGI,SW-620 colon,3.01 µM
same,GI50,UACC-62 melanoma,2.78 µM
same,TGI,UACC-62 melanoma,9.81 µM
same,GI50,HOP-62 NSCLC,2.47 µM
same,TGI,HOP-62 NSCLC,> 100 µM
same,GI50,NCI-H23 lung,5.2 µM
same,TGI,NCI-H23 lung,> 100 µM
same,GI50,OVCAR-8 ovarian,1.62 µM
same,TGI,OVCAR-8 ovarian,4.5 µM
same,GI50,MALME-3M melanoma,2.84 µM
same,TGI,MALME-3M melanoma,> 100 µM
same,GI50,OVCAR-3 ovarian,1.79 µM
same,TGI,OVCAR-3 ovarian,4.83 µM
same,GI50,OVCAR-4 ovarian,3.1 µM
same,TGI,OVCAR-4 ovarian,> 100 µM
same,GI50,MOLT-4 leukemia,2.02 µM
same,GI50,SF-539 CNS,2.11 µM
same,TGI,SF-539 CNS,4.75 µM
same,GI50,NCI-H226 lung,4.35 µM
same,TGI,NCI-H226 lung,> 100 µM
same,GI50,SNB-19 CNS,3.8 µM
same,TGI,SNB-19 CNS,> 100 µM
same,GI50,HCT-116 colon,1.56 µM
same,TGI,HCT-116 colon,4.24 µM
same,GI50,CAKI-1 renal,1.2 µM
same,TGI,CAKI-1 renal,> 100 µM
same,GI50,LOX IMVI melanoma,1.73 µM
same,TGI,LOX IMVI melanoma,3.56 µM
same,GI50,SF-295 CNS,3.96 µM
same,TGI,SF-295 CNS,> 100 µM
same,GI50,MCF7 breast,2.05 µM
same,TGI,MCF7 breast,> 100 µM
same,GI50,HT29 colon,1.2 µM
same,GI50,EKVX NSCLC,6.09 µM
same,TGI,EKVX NSCLC,> 100 µM
same,GI50,MDA-MB-435,1.25 µM
same,TGI,MDA-MB-435,> 100 µM
same,GI50,TK-10 renal,3.24 µM
same,TGI,TK-10 renal,> 100 µM
same,GI50,NCI-H460 lung,2.86 µM
same,TGI,NCI-H460 lung,8.17 µM
same,GI50,U251 CNS,2.89 µM
same,TGI,U251 CNS,> 100 µM
same,GI50,M14 melanoma,2.28 µM
same,TGI,M14 melanoma,22.3 µM
same,GI50,DU-145 prostate,3.2 µM
same,TGI,DU-145 prostate,> 100 µM
same,GI50,NCI-H522 lung,2.28 µM
same,TGI,NCI-H522 lung,> 100 µM
same,GI50,SK-MEL-2 melanoma,3.87 µM
same,TGI,SK-MEL-2 melanoma,> 100 µM
same,GI50,SR leukemia,0.327 µM
same,TGI,SR leukemia,4.42 µM
same,GI50,UACC-257 melanoma,4.3 µM
same,TGI,UACC-257 melanoma,> 100 µM
same,GI50,COLO 205 colon,1.67 µM
same,TGI,COLO 205 colon,4.96 µM
same,GI50,NCI/ADR-RES ovarian,2.15 µM
same,TGI,NCI/ADR-RES ovarian,6.5 µM

# Reference: PubChem BioAssay (NCI)
